Results published in patent US20180244611A1, “Modulators of the Cystic Fibrosis Transmembrane Conductance Regulator Protein and Methods of Use” (AbbVie S.à.r.l., priority 2017, published 2018).

What was measured:
F508delCFTR [1] = molecular target: T1, F508delCFTR (Homo sapiens, UniProt P13569, DEL508-508); test: Cell Surface Expression-Horse Radish Peroxidase (CSE-HRP) assay, test compound without co-corrector; assay type: cell-based; settings: for Emax: maximum at any tested concentration, normalized to positive control, without co-corrector; for EC50: test compound without co-corrector;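 as to Emax: percent of on-plate 2 µM positive control corrector response over DMSO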
T1 construct: expressed in transfected cells; host or cells: CFBE41o- human lung-derived epithelial cells (CFBE41o-F508delCFTR-HRP), doxycycline-inducible
Procedure, shortened: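 Compound without co-corrector was tested at eight 3-fold concentrations, top 20 μM, for 18-24 h at 33° C on doxycycline-induced (0.5 μg/mL, 72 h) CFBE41o- F508delCFTR-HRP cells. After DPBS washes, luminol luminescence gave % activity relative to on-plate positive control minus DMSO; EC50 came from triplicate-plate sigmoidal fitting.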

F508delCFTR [2] = molecular target: T1, F508delCFTR; test: Cell Surface Expression-Horse Radish Peroxidase (CSE-HRP) assay, test compound with co-corrector; assay type: cell-based; settings: with 2 μM co-corrector; for Maximum % activity (with co-corrector): maximum at any tested concentration, normalized to positive control;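 as to Maximum % activity (with co-corrector): percent of 2 µM positive control corrector over DMSO; co-corrector is that same compound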
Procedure, shortened: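 Surface-expression read-out: luminol luminescence from an HRP tag in the fourth exofacial loop of F508delCFTR, in doxycycline-induced (0.5 μg/mL, 72 h) CFBE41o- cells. Compound plus 2 μM co-corrector added for 18-24 h at 33° C., 8-point 3-fold series up to 20 μM. EC50 from a sigmoidal fit with variable Hill slope, normalised to positive control, triplicate plates.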

T1 sequence (P13569 with tags, fused parts or gaps DEL508-508): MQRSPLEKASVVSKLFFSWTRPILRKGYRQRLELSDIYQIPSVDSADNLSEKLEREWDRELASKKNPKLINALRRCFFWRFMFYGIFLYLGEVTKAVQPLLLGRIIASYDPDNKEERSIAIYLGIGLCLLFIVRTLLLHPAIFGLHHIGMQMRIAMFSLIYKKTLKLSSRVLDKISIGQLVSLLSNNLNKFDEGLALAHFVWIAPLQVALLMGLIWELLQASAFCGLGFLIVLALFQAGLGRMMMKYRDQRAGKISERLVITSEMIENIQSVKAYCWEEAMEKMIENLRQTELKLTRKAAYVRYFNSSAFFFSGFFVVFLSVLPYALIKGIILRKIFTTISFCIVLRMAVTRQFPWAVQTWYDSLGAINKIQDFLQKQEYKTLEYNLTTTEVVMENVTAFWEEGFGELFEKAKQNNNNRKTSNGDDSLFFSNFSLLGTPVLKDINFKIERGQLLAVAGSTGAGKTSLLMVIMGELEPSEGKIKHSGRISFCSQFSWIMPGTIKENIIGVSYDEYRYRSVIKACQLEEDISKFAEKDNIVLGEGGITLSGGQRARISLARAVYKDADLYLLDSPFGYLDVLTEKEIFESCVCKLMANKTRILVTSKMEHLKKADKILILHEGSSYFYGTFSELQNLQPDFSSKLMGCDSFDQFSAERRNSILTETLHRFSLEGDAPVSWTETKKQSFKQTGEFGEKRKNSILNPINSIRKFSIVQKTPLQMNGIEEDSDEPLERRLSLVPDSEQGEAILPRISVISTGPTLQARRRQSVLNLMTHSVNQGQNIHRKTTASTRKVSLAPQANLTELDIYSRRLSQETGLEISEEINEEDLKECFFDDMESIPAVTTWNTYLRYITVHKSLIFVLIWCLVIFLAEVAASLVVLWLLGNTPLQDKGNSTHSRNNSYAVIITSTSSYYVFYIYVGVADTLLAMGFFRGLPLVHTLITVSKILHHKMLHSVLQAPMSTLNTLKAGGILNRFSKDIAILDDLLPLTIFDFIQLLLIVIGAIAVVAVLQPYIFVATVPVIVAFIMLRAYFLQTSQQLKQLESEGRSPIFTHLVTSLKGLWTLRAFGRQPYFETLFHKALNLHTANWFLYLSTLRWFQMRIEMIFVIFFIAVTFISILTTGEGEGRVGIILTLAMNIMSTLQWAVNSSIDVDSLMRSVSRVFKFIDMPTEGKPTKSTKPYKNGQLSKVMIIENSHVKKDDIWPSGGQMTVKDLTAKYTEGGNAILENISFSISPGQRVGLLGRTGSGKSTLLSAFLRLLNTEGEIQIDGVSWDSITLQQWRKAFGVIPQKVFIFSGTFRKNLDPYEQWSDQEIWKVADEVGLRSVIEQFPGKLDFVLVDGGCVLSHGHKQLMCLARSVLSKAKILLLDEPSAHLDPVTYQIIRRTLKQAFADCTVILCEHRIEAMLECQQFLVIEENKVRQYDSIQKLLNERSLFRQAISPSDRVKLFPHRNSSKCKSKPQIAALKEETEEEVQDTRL

SMILES | Emax (F508delCFTR [1]) | EC50 (F508delCFTR [1]) | Maximum % activity (with co-corrector) (F508delCFTR [2]) | EC50 (F508delCFTR [2])
COc1ccc(Br)c2c1C(C(=O)NS(=O)(=O)c1cccc3cccnc13)CC2 (stereo not drawn) [II-116] | ≥ 150% | 3 to 10 µM | +++ (≥350) | 3 to 10 µM
COc1ccc(Br)c2c1C(C(=O)NS(=O)(=O)c1ccc(F)c3ncccc13)CC2 (stereo not drawn) [II-117] | ≥ 150% | 3 to 10 µM | +++ (≥350) | < 3 µM
CCC1(C(=O)NS(=O)(=O)c2cccc3ccccc23)Cc2cccc(OC)c21 (stereo not drawn) [II-118] | ≥ 150% | 3 to 10 µM | +++ (≥350) | < 3 µM
COc1ccc(-c2cccc(OC(F)(F)F)c2)c2c1C(C(=O)NS(=O)(=O)c1cccc3ccccc13)CCC2 (stereo not drawn) [II-119] | ≥ 150% | 3 to 10 µM | +++ (≥350) | 3 to 10 µM
COc1ccc(/C=C/c2ccccc2)c2c1C(C(=O)NS(=O)(=O)c1cccc3ccccc13)CCC2 (stereo not drawn) [II-120] | < 50% | 3 to 10 µM | ++ (≥150 and <350) | 3 to 10 µM
COc1ccc(C2=CCOCC2)c2c1C(C(=O)NS(=O)(=O)c1cccc3ccccc13)CCC2 (stereo not drawn) [II-121] | ≥ 150% | 3 to 10 µM | +++ (≥350) | < 3 µM
COc1ccc(-c2ccc(C)nc2)c2c1CCCC2C(=O)NS(=O)(=O)c1cccc2ccccc12 (stereo not drawn) [II-122] | ≥ 150% | 3 to 10 µM | +++ (≥350) | < 3 µM
CCOc1ccc2c(S(=O)(=O)NC(=O)C3CCc4c(Br)ccc(OC)c43)cccc2n1 (stereo not drawn) [II-123] | ≥ 150% | 3 to 10 µM | +++ (≥350) | 3 to 10 µM
COc1ccc(N2CCCC2)c2c1C(C(=O)NS(=O)(=O)c1cccc3ccccc13)CCC2 (stereo not drawn) [II-124] | ≥ 150% | < 3 µM | +++ (≥350) | < 3 µM
CCC1(C(=O)NS(=O)(=O)c2cccc(N3CCCCC3)c2C)CCc2c(Cl)cccc21 (stereo not drawn) [II-125] | 50 to 150% | 3 to 10 µM | +++ (≥350) | 3 to 10 µM
CCC1(C(=O)NS(=O)(=O)c2cccc(N3CC(F)(F)C3)c2C)CCc2c(Cl)cccc21 (stereo not drawn) [II-126] | 50 to 150% | 3 to 10 µM | +++ (≥350) | 3 to 10 µM
CCC1(C(=O)NS(=O)(=O)c2cccc(N3CCC(F)(F)C3)c2C)CCc2c(Cl)cccc21 (stereo not drawn) [II-127] | 50 to 150% | 3 to 10 µM | +++ (≥350) | < 3 µM
COc1ccc(-c2ccc(C(F)(F)F)nc2)c2c1CCCC2C(=O)NS(=O)(=O)c1cccc2ccccc12 (stereo not drawn) [II-129] | ≥ 150% | < 3 µM | +++ (≥350) | < 3 µM
COc1ccc(C2=CCOCC2)c2c1CCCC2C(=O)NS(=O)(=O)c1cccc2ccccc12 (stereo not drawn) [II-130] | ≥ 150% | < 3 µM | +++ (≥350) | < 3 µM
COc1ccc(-c2ccc(C3CC3)nc2)c2c1CCCC2C(=O)NS(=O)(=O)c1cccc2ccccc12 (stereo not drawn) [II-131] | ≥ 150% | < 3 µM | +++ (≥350) | < 3 µM
COc1ccc(Br)c2c1C(C(=O)NS(=O)(=O)c1cccc3nc(C(C)C)ccc13)CC2 (stereo not drawn) [II-132] | ≥ 150% | < 3 µM | +++ (≥350) | < 3 µM
COc1ccc(Br)c2c1C(C(=O)NS(=O)(=O)c1cccc3c(OC)cccc13)CC2 (stereo not drawn) [II-133] | ≥ 150% | 3 to 10 µM | +++ (≥350) | 3 to 10 µM
COC(=O)c1ccc(OC)c2c1CCC2C(=O)NS(=O)(=O)c1cccc2ccccc12 (stereo not drawn) [II-134] | ≥ 150% | 3 to 10 µM | +++ (≥350) | < 3 µM
COC(=O)c1cccc2c(S(=O)(=O)NC(=O)C3CCc4c(Br)ccc(OC)c43)cccc12 (stereo not drawn) [II-135] | ≥ 150% | 3 to 10 µM | +++ (≥350) | 3 to 10 µM
O=C(NS(=O)(=O)c1cccc2ccccc12)C1CCCc2c(Cl)ccc(OCCN3CCOCC3)c21 (stereo not drawn) [II-136] | ≥ 150% | 3 to 10 µM | +++ (≥350) | 3 to 10 µM
CC1(C(=O)NS(=O)(=O)Cc2ccccc2)CCc2c(Cl)cccc21 (stereo not drawn) [III-3] | < 50% | ≥ 10 µM | + (<150) | ≥ 10 µM
Cc1nn(C)c(C)c1S(=O)(=O)NC(=O)C1CCc2c(Cl)cccc21 (stereo not drawn) [III-4] | < 50% | ≥ 10 µM | + (<150) | ≥ 10 µM
COCCS(=O)(=O)NC(=O)C1CCc2c(Cl)cccc21 (stereo not drawn) [III-5] | < 50% | ≥ 10 µM | + (<150) | ≥ 10 µM

SMILES | Emax (F508delCFTR [1]) | EC50 (F508delCFTR [1]) | Maximum % activity (with co-corrector) (F508delCFTR [2]) | EC50 (F508delCFTR [2])
CCCS(=O)(=O)NC(=O)C1CCc2c(Cl)cccc21 (stereo not drawn) [III-6] | < 50% | ≥ 10 µM | + (<150) | ≥ 10 µM
COc1cccc2c1CC(C(=O)NS(=O)(=O)c1ccccc1C)CC2 (stereo not drawn) [III-7] | < 50% | ≥ 10 µM | ++ (≥150 and <350) | 3 to 10 µM
COc1ccc2c(c1)CCC2C(=O)NS(=O)(=O)c1ccccc1C (stereo not drawn) [III-9] | < 50% | ≥ 10 µM | + (<150) | ≥ 10 µM
Cc1ccccc1S(=O)(=O)NC(=O)C1CCc2ccccc2C1 (stereo not drawn) [III-10] | < 50% | ≥ 10 µM | + (<150) | ≥ 10 µM
COc1cccc2c1CCC2C(=O)NS(=O)(=O)c1c(C)nn(C)c1C (stereo not drawn) [III-11] | < 50% | ≥ 10 µM | + (<150) | ≥ 10 µM
COc1ccccc1S(=O)(=O)NC(=O)C1CCc2c(OC)cccc21 (stereo not drawn) [III-12] | < 50% | ≥ 10 µM | + (<150) | 3 to 10 µM
COc1cccc2c1CCC2C(=O)NS(=O)(=O)c1ccc(C)cn1 (stereo not drawn) [III-13] | < 50% | ≥ 10 µM | + (<150) | ≥ 10 µM
COc1cccc2c1CCC2C(=O)NS(=O)(=O)C1CCOCC1 (stereo not drawn) [III-14] | < 50% | ≥ 10 µM | + (<150) | ≥ 10 µM
COCCCS(=O)(=O)NC(=O)C1CCc2c(OC)cccc21 (stereo not drawn) [III-15] | < 50% | ≥ 10 µM | + (<150) | ≥ 10 µM
COCCS(=O)(=O)NC(=O)C1CCc2c(OC)cccc21 (stereo not drawn) [III-16] | < 50% | ≥ 10 µM | + (<150) | ≥ 10 µM
CCCS(=O)(=O)NC(=O)C1CCc2c(OC)cccc21 (stereo not drawn) [III-17] | < 50% | ≥ 10 µM | + (<150) | ≥ 10 µM
COc1ccccc1S(=O)(=O)NC(=O)C1CCc2c(Cl)cccc21 (stereo not drawn) [III-18] | < 50% | ≥ 10 µM | + (<150) | ≥ 10 µM
Cc1ccc(S(=O)(=O)NC(=O)C2CCc3c(Cl)cccc32)nc1 (stereo not drawn) [III-19] | < 50% | ≥ 10 µM | + (<150) | ≥ 10 µM
COc1cccc2c1CCC2C(=O)NS(=O)(=O)c1ccc(O)cc1 (stereo not drawn) [III-20] | < 50% | ≥ 10 µM | + (<150) | ≥ 10 µM
COc1cccc2c1CCC2C(=O)NS(=O)(=O)Cc1ccccc1 (stereo not drawn) [III-21] | < 50% | ≥ 10 µM | + (<150) | ≥ 10 µM
COc1cccc2c1CCC2C(=O)NS(=O)(=O)c1ccc2cc(O)ccc2c1 (stereo not drawn) [III-22] | < 50% | ≥ 10 µM | + (<150) | ≥ 10 µM
COc1cccc2c1CCC2C(=O)NS(=O)(=O)c1ccc(C)cc1 (stereo not drawn) [III-23] | < 50% | 3 to 10 µM | ++ (≥150 and <350) | 3 to 10 µM
COc1cccc2c1CCC2C(=O)NS(=O)(=O)c1nnc(NC(C)=O)s1 (stereo not drawn) [III-24] | < 50% | ≥ 10 µM | + (<150) | ≥ 10 µM
COc1cccc2c1CCC2C(=O)NS(=O)(=O)c1cc(C)ccc1C(C)C (stereo not drawn) [III-25] | < 50% | ≥ 10 µM | + (<150) | 3 to 10 µM
COc1cccc2c1CCC2C(=O)NS(=O)(=O)c1ccc(S(C)(=O)=O)cc1 (stereo not drawn) [III-26] | < 50% | ≥ 10 µM | + (<150) | ≥ 10 µM
COc1cccc2c1CCC2C(=O)NS(=O)(=O)c1cccc([N+](=O)[O-])c1 (stereo not drawn) [III-27] | < 50% | ≥ 10 µM | + (<150) | ≥ 10 µM
COc1cccc2c1CCC2C(=O)NS(=O)(=O)c1ccc(Cl)c([N+](=O)[O-])c1 (stereo not drawn) [III-28] | < 50% | ≥ 10 µM | + (<150) | ≥ 10 µM
